Here are results for 16 compounds from patent publication US20230257351A1, “SUBSTITUTED N-[…] HAVING P2X4 RECEPTOR ANTAGONISTIC ACTIVITY” (Bayer Aktiengesellschaft, priority 2020, published 2023).

The structures appear in SMILES notation.

One assay has as its target T1, human P2X4 (Homo sapiens, UniProt Q99571).
T1 construct: expressed in transfected cells
T1 sequence (Q99571 1-388): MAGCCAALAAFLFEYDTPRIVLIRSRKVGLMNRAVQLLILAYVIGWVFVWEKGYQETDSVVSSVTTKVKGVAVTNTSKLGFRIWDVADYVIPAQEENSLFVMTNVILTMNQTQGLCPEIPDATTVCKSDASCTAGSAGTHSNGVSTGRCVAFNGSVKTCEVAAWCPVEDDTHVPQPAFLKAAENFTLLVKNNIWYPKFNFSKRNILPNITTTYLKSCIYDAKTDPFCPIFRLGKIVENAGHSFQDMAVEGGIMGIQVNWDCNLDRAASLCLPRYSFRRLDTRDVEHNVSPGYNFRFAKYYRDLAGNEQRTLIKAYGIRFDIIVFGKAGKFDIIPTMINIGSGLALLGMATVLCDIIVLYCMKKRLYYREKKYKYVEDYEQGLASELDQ
As to the kind of experiment: Human P2X4 HEK Cell FLIPR Assay. It counts as cell-based. Conditions: HEK293 stably expressing human P2X4, agonist Bz-ATP 3 μM (EC80); for IC50: read-out: Human P2X4 HEK Cells (FLIPR Assay) avg IC50. The procedure, abridged: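 HEK293 cells stably expressing human P2X4 were loaded with Fluo8-AM (30 min, 37 °C, HBSS/HEPES pH 7.4 with probenecid), then preincubated 30 min at room temperature with compound, 25 μM–1 nM final, 0.5% DMSO. Bz-ATP-evoked calcium fluorescence was read on FLIPR; data were normalized to agonist control and given a four-parameter fit for IC50.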

Another assay deals with T2, rat P2X4 (Rattus norvegicus, UniProt P51577).
T2 construct: expressed in transfected cells
T2 sequence (P51577 1-388): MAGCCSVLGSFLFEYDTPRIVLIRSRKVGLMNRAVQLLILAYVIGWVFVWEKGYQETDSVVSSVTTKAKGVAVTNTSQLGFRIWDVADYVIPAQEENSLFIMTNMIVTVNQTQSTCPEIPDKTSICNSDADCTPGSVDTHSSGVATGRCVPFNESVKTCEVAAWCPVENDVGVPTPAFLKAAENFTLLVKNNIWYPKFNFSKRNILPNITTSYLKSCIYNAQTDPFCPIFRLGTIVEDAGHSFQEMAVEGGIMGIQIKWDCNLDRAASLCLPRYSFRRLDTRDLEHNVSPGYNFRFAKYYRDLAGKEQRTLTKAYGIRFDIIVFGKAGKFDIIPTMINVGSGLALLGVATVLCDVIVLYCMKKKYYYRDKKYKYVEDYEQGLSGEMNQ
As to the kind of experiment: FLIPR Method for Rat P2X4 1321N1 Astrocytoma Cells. It counts as cell-based. The note with it: 1321N1 stably expressing rat P2X4; agonist MgATP 5 μM (EC80). The protocol: Compounds were tested on a 1321N1 cell line stably expressing rat P2X4. Cells were cultured on collagen-I-coated 384-well plates at a density of 10,000 cells/well and incubated overnight at 37° C., 5% CO2. P2X4 function was assessed by measuring intracellular calcium fluxes caused by Magnesium-ATP (MgATP) using the calcium-chelating dye Fluo8-AM (Molecular Devices) with the Fluorescent Imaging Plate Reader Tetra (FLIPR^Tetra; Molecular Devices CA). On the day of the assay, the medium was removed and the cells were incubated for 30 minutes at 37° C. and 5% CO2 in 30 μl of dye buffer (Hank's balanced salt solution, 10 mM HEPES, 1.8 mM CaCl2, 1 mM MgCl2, 2 mM probenecid, 5 mM D-glucose monohydrate, 5 μM Fluo8-AM, pH=7.4).
Compounds diluted in probenecid buffer (Hank's balanced salt solution, 10 mM HEPES, 1.8 mM CaCl2, 1 mM MgCl2, 2 mM probenecid, 5 mM D-glucose monohydrate, pH=7.4) at ten concentrations ranging from 25 μM to 1 nM (final concentration) were dispensed and incubated for 30 minutes at room temperature. The agonist, MgATP (Sigma-Aldrich Chemie GmbH, DE), was added at a final concentration of 5 μM, representing the EC80 routinely determined. The final assay volume was 50 μl and final DMSO concentration was 0.5%.
The fluorescence intensity reflecting intracellular calcium changes was recorded before and after MgATP addition, at an excitation and emission wavelengths of 470-495 nm and 515-575 nm respectively.
The compounds were tested in triplicates and fluorescence intensity raw data normalized to the agonist control and fitted to the four-parameter logistic equation:
Y=Bottom+(Top−Bottom)/(1+10^((Log IC50−X)*HillSlope))
Assay plate acceptance was based on the signal window (S/B)[…] and the reference compound pIC50 within ±[…] the mean of historic pIC50 of the compound. Failure to meet two of the three criteria determined exclusion of the plate's results. In Table 10 below the results for the assays are reported

`CC(=O)N(c1cccc(F)c1)c1cc(NC(=O)Cc2ccc(F)cc2Cl)ccn1` [Example 55, N-{4-[2-(2-chloro-4-fluorophenyl)acetamido]pyridin-2-yl}-N-(3-fluorophenyl)acetamide]: on human P2X4, the “Human P2X4 HEK Cells (FLIPR Assay) avg Efficacy” value (“Human P2X4 HEK Cells” for short) amounted to 102% and the IC50 (usually the concentration at which inhibition is half-maximal) was found to be 611 nM. Besides, on rat P2X4, the IC50 turned out to be 289 nM and the “Rat P2X4 1321N1 Astrocytoma Cells (FLIPR Assay) avg Efficacy” value (shortened to “Rat P2X4 1321N1 Astrocytoma Cells”) is 99%.
For `CC(=O)N(c1cccc(F)c1)c1cc(NC(=O)Cc2c(Cl)cccc2Cl)ccn1` [Example 56, N-{4-[2-(2,6-dichlorophenyl)acetamido]pyridin-2-yl}-N-(3-fluorophenyl)acetamide], in that order: 97%, 260 nM, 190 nM and 98%.
The corresponding values for `CC(=O)N(c1cccc(F)c1)c1cc(NC(=O)Cc2c(Cl)cc(F)cc2Cl)ccn1` [Example 57, N-{4-[2-(2,6-dichloro-4-fluorophenyl)acetamido]pyridin-2-yl}-N-(3-fluorophenyl)acetamide] are 99%, 377 nM, 122 nM and 97%.
For `CC(=O)N(c1ccc(Cl)c(F)c1)c1cc(NC(=O)Cc2ccccc2Cl)ccn1` [Example 58, N-(4-chloro-3-fluorophenyl)-N-{4-[2-(2-chlorophenyl)acetamido]pyridin-2-yl}acetamide], in that order: 95%, 351 nM, 350 nM and 86%.
In the case of `CC(=O)N(c1ccc(Cl)c(F)c1)c1cc(NC(=O)Cc2ccc(F)cc2Cl)ccn1` [Example 59, N-(4-chloro-3-fluorophenyl)-N-{4-[2-(2-chloro-4-fluorophenyl)acetamido]pyridin-2-yl}acetamide], on human P2X4, the “Human P2X4 HEK Cells” value is reported as 97% and the IC50 was determined as 532 nM. At rat P2X4, the IC50 amounted to 240 nM and the “Rat P2X4 1321N1 Astrocytoma Cells” value is on record as 81%.
On to `CC(=O)N(c1ccc(Cl)c(F)c1)c1cc(NC(=O)Cc2cccc(F)c2Cl)ccn1` [Example 60, N-(4-chloro-3-fluorophenyl)-N-{4-[2-(2-chloro-3-fluorophenyl)acetamido]pyridin-2-yl}acetamide], for which, at human P2X4, the “Human P2X4 HEK Cells” value was 96% and the IC50 amounted to 454 nM. Further, at rat P2X4, the IC50 turned out to be 434 nM and the “Rat P2X4 1321N1 Astrocytoma Cells” value was 94%.
For `CC(=O)N(c1ccc(F)c(F)c1)c1cc(NC(=O)Cc2cccc(C)c2C)ccn1` [Example 62, N-(3,4-difluorophenyl)-N-{4-[2-(2,3-dimethylphenyl)acetamido]pyridin-2-yl}acetamide], in that order: 91%, 251 nM, 368 nM and 91%.
The corresponding values for `CC(=O)N(c1ccc(F)c(F)c1)c1cc(NC(=O)Cc2ccccc2C(F)(F)F)ccn1` [Example 63, N-(3,4-difluorophenyl)-N-(4-{2-[2-(trifluoromethyl)phenyl]acetamido}pyridin-2-yl)acetamide] are 97%, 424 nM, 372 nM and 97%.
For `CC(=O)N(c1ccc(F)c(F)c1)c1cc(NC(=O)Cc2c(C)cc(Cl)cc2Cl)ccn1` [Example 64, N-{4-[2-(2,4-dichloro-6-methylphenyl)acetamido]pyridin-2-yl}-N-(3,4-difluorophenyl)acetamide], in that order: 96%, 829 nM, 497 nM and 100%.
With `CC(=O)N(c1ccc(F)c(F)c1)c1cc(NC(=O)Cc2c(C)cc(C)cc2Cl)ccn1` [Example 65, N-{4-[2-(2-chloro-4,6-dimethylphenyl)acetamido]pyridin-2-yl}-N-(3,4-difluorophenyl)acetamide], on human P2X4, the “Human P2X4 HEK Cells” value is 94% and the IC50 was 505 nM. Moreover, on rat P2X4, the IC50 was found to be 122 nM and the “Rat P2X4 1321N1 Astrocytoma Cells” value was found to be 93%.
For `CC(=O)N(c1ccc(F)c(F)c1)c1cc(NC(=O)Cc2c(C)cccc2C)ccn1` [Example 66, N-(3,4-difluorophenyl)-N-{4-[2-(2,6-dimethylphenyl)acetamido]pyridin-2-yl}acetamide], in that order: 90%, 303 nM, 64.2 nM and 73%.
The corresponding values for `CC(=O)N(c1ccc(F)c(F)c1)c1cc(NC(=O)Cc2ccc(Cl)cc2Cl)ccn1` [Example 67, N-{4-[2-(2,4-dichlorophenyl)acetamido]pyridin-2-yl}-N-(3,4-difluorophenyl)acetamide] are 94%, 604 nM, 159 nM and 97%.
In the case of `CC(=O)N(c1ccc(F)c(F)c1)c1cc(NC(=O)Cc2ccc([N+](=O)[O-])cc2Cl)ccn1` [Example 69, N-{4-[2-(2-chloro-4-nitrophenyl)acetamido]pyridin-2-yl}-N-(3,4-difluorophenyl)acetamide], on human P2X4, the “Human P2X4 HEK Cells” value was found to be 94% and the IC50 came to 816 nM. At rat P2X4, the half-inhibitory concentration (IC50) came to 228 nM and the “Rat P2X4 1321N1 Astrocytoma Cells” value is on record as 100%.
For `COc1ccc(CC(=O)Nc2ccnc(N(C(C)=O)c3ccc(F)c(F)c3)c2)c(Cl)c1` [Example 70, N-{4-[2-(2-chloro-4-methoxyphenyl)acetamido]pyridin-2-yl}-N-(3,4-difluorophenyl)acetamide], in that order: 88%, 714 nM, 714 nM and 100%.
The corresponding values for `CC(=O)N(c1ccc(F)c(F)c1)c1cc(NC(=O)Cc2cccc(F)c2Cl)ccn1` [Example 71, N-{4-[2-(2-chloro-3-fluorophenyl)acetamido]pyridin-2-yl}-N-(3,4-difluorophenyl)acetamide] are 96%, 222 nM, 165 nM and 90%.
The corresponding values for `CC(=O)N(c1ccc(F)c(F)c1)c1cc(NC(=O)Cc2c(Cl)cccc2Cl)ccn1` [Example 72, N-{4-[2-(2,6-dichlorophenyl)acetamido]pyridin-2-yl}-N-(3,4-difluorophenyl)acetamide] are 97%, 355 nM, 58.5 nM and 89%.
